≈ marks a conversion by molar mass, not a printed value.
Experiments:
Dihydrofolate reductase [1] = target: T1, Dihydrofolate reductase (Rattus norvegicus, UniProt Q920D2); assay: Inhibitory activity against dihydrofolate reductase (DHFR) enzyme from rat liver; conditions: read-out: I50
T1 sequence (Q920D2 whole entry): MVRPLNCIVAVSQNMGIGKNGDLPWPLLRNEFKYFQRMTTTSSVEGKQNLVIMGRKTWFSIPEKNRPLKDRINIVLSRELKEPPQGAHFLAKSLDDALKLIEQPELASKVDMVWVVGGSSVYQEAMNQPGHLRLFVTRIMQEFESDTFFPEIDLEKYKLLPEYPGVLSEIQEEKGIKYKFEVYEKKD

Dihydrofolate reductase [2] = target: T2, Dihydrofolate reductase (Gallus gallus, UniProt P00378); assay: Inhibitory activity against dihydrofolate reductase (DHFR) enzyme from chicken liver; conditions: read-out: I50
T2 sequence (P00378 whole entry): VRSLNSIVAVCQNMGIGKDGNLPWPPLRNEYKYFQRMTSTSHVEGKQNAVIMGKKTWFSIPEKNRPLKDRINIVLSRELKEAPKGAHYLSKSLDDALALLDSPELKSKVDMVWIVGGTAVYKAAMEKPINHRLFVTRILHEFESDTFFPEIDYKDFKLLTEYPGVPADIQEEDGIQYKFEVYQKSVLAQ

[3] = target: Bifunctional dihydrofolate reductase-thymidylate synthase (Plasmodium berghei str. ANKA, UniProt Q27713); assay: Inhibitory activity against dihydrofolate reductase (DHFR) enzyme from Plasmodium berghei; conditions: read-out: I50
Bifunctional dihydrofolate reductase-thymidylate synthase, sequence (Q27713 whole entry): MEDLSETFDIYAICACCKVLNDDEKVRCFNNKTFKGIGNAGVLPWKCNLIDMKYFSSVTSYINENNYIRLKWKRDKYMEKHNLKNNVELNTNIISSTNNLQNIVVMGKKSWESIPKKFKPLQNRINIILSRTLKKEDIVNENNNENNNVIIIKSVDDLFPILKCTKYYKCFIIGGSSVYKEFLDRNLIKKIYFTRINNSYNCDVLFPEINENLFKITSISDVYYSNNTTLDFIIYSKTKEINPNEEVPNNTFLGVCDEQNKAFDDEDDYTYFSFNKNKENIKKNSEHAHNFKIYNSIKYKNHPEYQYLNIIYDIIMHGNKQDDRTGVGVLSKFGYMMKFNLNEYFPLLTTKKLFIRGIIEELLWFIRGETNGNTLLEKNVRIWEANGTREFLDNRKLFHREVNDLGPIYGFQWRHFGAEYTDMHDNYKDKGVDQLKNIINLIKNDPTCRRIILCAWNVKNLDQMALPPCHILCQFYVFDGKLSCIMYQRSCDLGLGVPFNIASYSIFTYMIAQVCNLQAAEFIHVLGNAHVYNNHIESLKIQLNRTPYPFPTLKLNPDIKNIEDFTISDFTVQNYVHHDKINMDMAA

Escherichia coli = assay: In vitro antibacterial activity against Escherichia coli (CN314)
Klebsiella aerogenes = assay: In vitro antibacterial activity against Enterobacter aerogenes (2200/86)
Proteus vulgaris = assay: In vitro antibacterial activity against Proteus vulgaris (CN3296)
Shigella flexneri = assay: In vitro antibacterial activity against Shigella flexneri (CN6007)
Salmonella = assay: In vitro antibacterial activity against Salmonella typhi (CN512)
Staphylococcus aureus = assay: In vitro antibacterial activity against Staphylococcus aureus (CN491)
Klebsiella pneumoniae = assay: microbe, parasite or virus in culture
Description: In vitro antibacterial activity against Klebsiella pneumoniae (CN 3632)

[4] = Partition coefficient (logP); format: physicochemical; conditions: octanol/water
[5] = Acid dissociation constant was determined; format: ADME

SMILES	IC50 (Dihydrofolate reductase [1]) [µM]	IC50 (Dihydrofolate reductase [2]) [µM]	IC50 [3] [µM]	MIC (Escherichia coli) [µg/mL]	MIC (Klebsiella aerogenes) [µg/mL]	MIC (Proteus vulgaris) [µg/mL]	MIC (Shigella flexneri) [µg/mL]	MIC (Salmonella) [µg/mL]	MIC (Staphylococcus aureus) [µg/mL]	MIC (Klebsiella pneumoniae) [µg/mL]	logP [4]	pKa [5]
COc1ccc(Cc2cnc(N)nc2N)cc1	170	–	–	–	–	–	–	–	–	–	–	–
CCc1ccc(Cc2cnc(N)nc2N)cc1CC	59	120	0.068	3 (≈ 11.7 µM)	10 (≈ 39 µM)	30 (≈ 117 µM)	10 (≈ 39 µM)	3 (≈ 11.7 µM)	3 (≈ 11.7 µM)	30 (≈ 117 µM)	–	–
CCc1cc(Cc2cnc(N)nc2N)cc(CC)c1CC	38	33	0.073	1 (≈ 3.52 µM)	10 (≈ 35.2 µM)	30 (≈ 105 µM)	3 (≈ 10.5 µM)	1 (≈ 3.52 µM)	0.1 (≈ 0.352 µM)	10 (≈ 35.2 µM)	1.33	7.12
CC(C)(C)c1ccc(Cc2cnc(N)nc2N)cc1	230	–	–	10 (≈ 39 µM)	30 (≈ 117 µM)	100 (≈ 390 µM)	30 (≈ 117 µM)	10 (≈ 39 µM)	10 (≈ 39 µM)	100 (≈ 390 µM)	–	–
CCc1ccc(Cc2cnc(N)nc2N)cc1	> 40	–	–	10 (≈ 43.8 µM)	10 (≈ 43.8 µM)	30 (≈ 131 µM)	10 (≈ 43.8 µM)	10 (≈ 43.8 µM)	30 (≈ 131 µM)	30 (≈ 131 µM)	–	–
CCc1ccc(Cc2cnc(N)nc2N)cc1C(C)C	29	–	–	30 (≈ 111 µM)	100 (≈ 370 µM)	100 (≈ 370 µM)	30 (≈ 111 µM)	10 (≈ 37 µM)	3 (≈ 11.1 µM)	100 (≈ 370 µM)	–	–
CC(C)c1ccc(Cc2cnc(N)nc2N)cc1	210	–	–	16 (≈ 66 µM)	–	125 (≈ 516 µM)	32 (≈ 132 µM)	16 (≈ 66 µM)	8 (≈ 33 µM)	–	–	–
COc1ccc(Cc2cnc(N)nc2N)cc1OC [DIAVERIDINE]	78	300	0.21	0.5 (≈ 1.92 µM)	0.5 (≈ 1.92 µM)	5 (≈ 19.2 µM)	0.5 (≈ 1.92 µM)	0.1 (≈ 0.384 µM)	5 (≈ 19.2 µM)	5 (≈ 19.2 µM)	–	–
COc1cc(Cc2cnc(N)nc2N)cc(OC)c1OC [TRIMETHOPRIM]	–	–	–	0.1 (≈ 0.344 µM)	0.3 (≈ 1.03 µM)	1 (≈ 3.44 µM)	0.1 (≈ 0.344 µM)	0.03 (≈ 0.103 µM)	0.3 (≈ 1.03 µM)	1 (≈ 3.44 µM)	–	–
